Measured values published in patent EP1561465A2, “Methods of use of fluoroquinolone compounds against bacteria” (LG Life Sciences, Ltd., priority 1999, dated 2001).
Values after ≈ are worked out from the molar mass of the structure shown. Where two headings read alike, the source gives them in different places.

How the values were obtained:
Format in all cases: cell-based
Streptococcus pneumoniae = test: MIC by E-test (broth microdilution for gemifloxacin), 107 pneumococcal carrier isolates, Athens 1998; details: E-test; for MIC Range: in µg/mL (unit assumed); for MIC50 / MIC90: Streptococcus pneumoniae; for MIC50: read-out: MIC50; for MIC90: read-out: MIC90
Description: Susceptibility testing was performed by agar dilution or epsilometer method (E-test), as recommended by the NCCLS. […] The susceptibility profiles of the strains were assessed using the Epsilometer method (E-test). The isolates were subdivided into two groups according to their penicillin susceptibility patterns (penicillin-susceptible and penicillin-intermediate.

Pseudomonas aeruginosa = test: MIC by agar dilution (NCCLS), 322 nosocomial Gram negative isolates, Athens 1998; details: n = 57 isolates
Staphylococcus aureus = test: MIC by agar macrodilution (NCCLS), 373 Gram positive isolates, Athens 1998; details: Methicillin-susceptible Staphylococcus aureus (n = 85)
Aeromonas spp. [1] = test: MIC by agar dilution (NCCLS M7-A4), 288 enteropathogenic isolates, eight quinolones; details: Aeromonas spp. (n = 16)
Aeromonas spp. [2] = test: MIC by agar dilution (NCCLS M7-A4), 288 enteropathogenic isolates, gemifloxacin and 15 other antimicrobials; details: Aeromonas spp. N= 16
Salmonella spp. [3] = test: MIC by agar dilution (NCCLS M7-A4), 288 enteropathogenic isolates, eight quinolones; details: for MIC: ciprofloxacin MIC ≥[…], read-out: MIC
Salmonella spp. [4] = test: MIC by agar dilution (NCCLS M7-A4), 288 enteropathogenic isolates, gemifloxacin and 15 other antimicrobials
Haemophilus influenzae = test: MIC by broth microdilution (NCCLS), dried MicroScan panels, clinical isolates 1998-1999; details: for MIC90: Haemophilus influenzae
Hafnia alvei = test: MIC by agar dilution (NCCLS M7-A4), 288 enteropathogenic isolates, gemifloxacin and 15 other antimicrobials; details: Hafnia alvei N= 32
[5] = Penicillin-intermediate S. pneumoniae (n = 24)
[6] = Penicillin-susceptible S. pneumoniae (n = 107)
[7] = Haemophilus influenzae (300 isolates)

In the case of `Cc1c(F)c(N2CCNC(C)C2)cc2c1c(=O)c(C(=O)O)cn2C1CC1` (stereo not shown) [Grepafloxacin, grepafloxacin], the MIC Range (Streptococcus pneumoniae; [5]) is reported as 0.047-0.5, the MIC Range (Streptococcus pneumoniae; [6]) is reported as 0.047-1 and the MIC50 (Streptococcus pneumoniae; [5]) is reported as 0.19 µg/mL (≈ 0.529 µM). The MIC90 (Streptococcus pneumoniae; [5]) was 0.38 µg/mL (≈ 1.06 µM), the MIC50 (Streptococcus pneumoniae; [6]) was 0.19 µg/mL (≈ 0.529 µM) and the MIC90 (Streptococcus pneumoniae; [6]) was 0.38 µg/mL (≈ 1.06 µM). The MIC50 (Pseudomonas aeruginosa) was 1 µg/mL (≈ 2.78 µM), the MIC90 (Pseudomonas aeruginosa) was > 64 µg/mL and the “MIC Range” value (Staphylococcus aureus) was 0.06 to 32 µg/mL. The MIC50 (Staphylococcus aureus; read-out: MIC50) was 0.125 µg/mL (≈ 0.348 µM), the MIC90 (Staphylococcus aureus; read-out: MIC90) was 0.25 µg/mL (≈ 0.696 µM) and the “% Susceptible” value (Aeromonas spp. [1]) was 100%. For the same compound, the MIC50 (Aeromonas spp. [1]) was 0.03 µg/mL (≈ 0.0835 µM), the MIC90 (Aeromonas spp. [1]) was 0.06 µg/mL (≈ 0.167 µM) and the “MIC Range” value (Aeromonas spp. [1]) was ≤0.015 to 0.12 µg/mL. The “MIC (mg/L) Range” value (Aeromonas spp. [2]) was ≤0.015 to 0.12 mg/L, the MIC (Aeromonas spp. [2]; read-out: MIC (mg/L) 50%) was 0.03 mg/L (≈ 0.0835 µM) and the MIC (Aeromonas spp. [2]; read-out: MIC (mg/L) 90%) was 0.06 mg/L (≈ 0.167 µM). The MIC (Salmonella spp. [3]; S. hadar (n = 2)) was 1 µg/mL (≈ 2.78 µM), the MIC (Salmonella spp. [3]; S. newport (n = 1)) was 1 µg/mL (≈ 2.78 µM) and the MIC (Salmonella spp. [3]; S. virchow (n = 2)) was 0.25 µg/mL (≈ 0.696 µM). For the same compound, the “% Susceptible” value (Salmonella spp. [3]; Salmonella spp. (n = 106)) was 99%, the MIC50 (Salmonella spp. [3]; Salmonella spp. (n = 106)) was 0.06 µg/mL (≈ 0.167 µM) and the MIC90 (Salmonella spp. [3]; Salmonella spp. (n = 106)) was 0.25 µg/mL (≈ 0.696 µM). For the same compound, the “MIC Range” value (Salmonella spp. [3]; Salmonella spp. (n = 106)) was 0.03 to 2 µg/mL, the MIC (Salmonella spp. [3]; Salmonella, S. tshiongwe (n = 1)) was 2 µg/mL (≈ 5.56 µM) and the MIC (Salmonella spp. [4]; S. hadar(2), isolates with MICs for ciprofloxacin ≥[…], read-out: MIC) was 1 mg/L (≈ 2.78 µM). For the same compound, the MIC (Salmonella spp. [4]; S. newport(1), isolate with MIC for ciprofloxacin ≥[…], read-out: MIC) was 1 mg/L (≈ 2.78 µM), the MIC (Salmonella spp. [4]; S. virchow(2), isolates with MICs for ciprofloxacin ≥[…], read-out: MIC) was 0.25 mg/L (≈ 0.696 µM) and the “Rates of non-susceptible microorganisms” value (Salmonella spp. [4]; Salmonella spp.) was 1%. The “MIC (mg/L) Range” value (Salmonella spp. [4]; Salmonella spp. N= 106) was 0.03 to 2 mg/L, the MIC (Salmonella spp. [4]; Salmonella, S. tshiongwe(1), isolate with MIC for ciprofloxacin ≥[…], read-out: MIC) was 2 mg/L (≈ 5.56 µM) and the MIC (Salmonella spp. [4]; Salmonella, read-out: MIC (mg/L) 50%, Salmonella spp. N= 106) was 0.06 mg/L (≈ 0.167 µM). The MIC (Salmonella spp. [4]; Salmonella, read-out: MIC (mg/L) 90%, Salmonella spp. N= 106) was 0.25 mg/L (≈ 0.696 µM), the MIC (Salmonella spp. [4]; Salmonella, the non-susceptible Salmonella spp. isolate(s) (1% of 106), read-out: MIC) was 2 mg/L (≈ 5.56 µM) and the MIC50 (Haemophilus influenzae; [7]) was ≤ 0.015 µg/mL. The “MIC Range” value (Haemophilus influenzae; [7]) was ≤0.015 to 0.12 µg/mL, the MIC90 (Haemophilus influenzae; [7]) was ≤ 0.015 µg/mL and the MIC90 (Haemophilus influenzae; β-lactamase negative (234)) was ≤ 0.015 µg/mL. It also gave an MIC90 (Haemophilus influenzae; β-lactamase positive (66)) of 0.03 µg/mL (≈ 0.0835 µM), an MIC (Hafnia alvei; 24 h, read-out: MIC (mg/L) Range) of 0.015 to 0.06 mg/L (≈ 0.0417 to 0.167 µM) and an MIC (Hafnia alvei; read-out: MIC (mg/L) 50%) of 0.03 mg/L (≈ 0.0835 µM). The MIC (Hafnia alvei; read-out: MIC (mg/L) 90%) was 0.06 mg/L (≈ 0.167 µM).
